Data: patent US6407097B1, “Methoximinomethyloxathiazines” (Bayer Aktiengesellschaft, priority 1998, dated 2002)

Tests used:
[1] = logP by HPLC (EEC directive 79/831 Annex V. A8, gradient method); type: physicochemical; conditions: starting materials/intermediates, read-out: HPLC: log P
Sphaerotheca fuliginea = assay: Sphaerotheca test (cucumber)/protective; type: in vivo; conditions: protective, application rate 100 g/ha, evaluation 10 days after inoculation
Description: Sphaerotheca test (cucumber)/protective Solvent: 47 parts by weight of acetone Emulsifier: 3 parts by weight of alkylaryl polyglycol ether To produce a suitable preparation of active compound, 1 part by weight of active compound is mixed with the stated amounts of solvent and emulsifier, and the concentrate is diluted with water to the desired concentration. To test for protective activity, young plants are sprayed with the preparation of active compound at the stated application rate. After the spray coating has dried on, the plants are inoculated with an aqueous spore suspension of Sphaerotheca fuliginea. The plants are then placed in a greenhouse at approximately 23° C. and a relative atmospheric humidity of approximately 70%. Evaluation is carried out 10 days after the inoculation. 0% means an efficacy which corresponds to that of the control, whereas an efficacy of 100% means that no infection is observed.

SMILES | chromatographic logP [1] | efficacy (Sphaerotheca fuliginea) [%]
CON=C1C(=NOCCSC(C)=O)Oc2ccccc21 (single isomer, unassigned) [VI-1 Isomer A, S-[2-(3-methoxyimino-3H-benzofuran-2-ylideneaminooxy)-ethyl]thioacetate] | 3.01 | 
CON=C1C(=NOCCSC(C)=O)Oc2ccccc21 (single isomer, unassigned) [VI-1 Isomer B, S-[2-(3-methoxyimino-3H-benzofuran-2-ylideneaminooxy)-ethyl]thioacetate] | 3.18 | 
CON=C1C(=NOCCBr)Oc2ccccc21 (single isomer, unassigned) [VII-1 Isomer A, benzofuran-2,3-dione 2-[O-(2-bromoethyl)-oxime] 3-(O-methyloxime)] | 3.08 | 
CON=C1C(=NOCCBr)Oc2ccccc21 (single isomer, unassigned) [VII-1 Isomer B, benzofuran-2,3-dione 2-[O-(2-bromoethyl)-oxime] 3-(O-methyloxime)] | 3.23 | 
CON=C(C1=NOCCS1)c1ccccc1Oc1ncnc(Oc2ccccc2)c1F [Example 1, (5,6-dihydro-[1,4,2]-oxathiazin-3-yl)-2-[(5-fluoro-6-phenoxy-pyrimidine-4-yloxy)-phenyl]-methanone O-methyloxime] |  | ≥ 90

Second part, led by results:

chromatographic logP [1] | SMILES | efficacy (Sphaerotheca fuliginea) [%]
1.75 | CON=C(C1=NOCCS1)c1ccccc1O [II-1, (5,6-dihydro-[1,4,2]oxathiazin-3-yl)-(2-hydroxyphenyl)-methanone O-methyloxime] | 
2.8 | CON=C(C1=NOCCS1)c1ccccc1Oc1ncnc(F)c1F [IV-1, [2-(5,6-difluoro-pyrimidine-4-yloxy)-phenyl]-(5,6-dihydro-[1,4,2]oxathiazin-3-yl)-methanone O-methyloxime] | 
